Read-outs that look alike come from different tables or passages of the source. Bounds are passed on as bounds.

Experimental findings from patent US20080090805A1, “CB-1 MODULATING COMPOUNDS AND THEIR USE” (ACADIA PHARMACEUTICALS INC., priority 2005, published 2008) are described below.

This assay deals with CB1 (mutant) (Homo sapiens, UniProt P21554). The assay is described as follows: R-SAT functional receptor assay, CB1 (mutant, truncated after amino acid 417). The conditions noted are these: R-SAT CB1; for IC50: receptor form (mutant or wild-type) not stated; for Emax: receptor form not stated, relative to SR141716 (100%). Format: cell-based.
Chain of CB1 (mutant) (P21554 1-417, change not shown): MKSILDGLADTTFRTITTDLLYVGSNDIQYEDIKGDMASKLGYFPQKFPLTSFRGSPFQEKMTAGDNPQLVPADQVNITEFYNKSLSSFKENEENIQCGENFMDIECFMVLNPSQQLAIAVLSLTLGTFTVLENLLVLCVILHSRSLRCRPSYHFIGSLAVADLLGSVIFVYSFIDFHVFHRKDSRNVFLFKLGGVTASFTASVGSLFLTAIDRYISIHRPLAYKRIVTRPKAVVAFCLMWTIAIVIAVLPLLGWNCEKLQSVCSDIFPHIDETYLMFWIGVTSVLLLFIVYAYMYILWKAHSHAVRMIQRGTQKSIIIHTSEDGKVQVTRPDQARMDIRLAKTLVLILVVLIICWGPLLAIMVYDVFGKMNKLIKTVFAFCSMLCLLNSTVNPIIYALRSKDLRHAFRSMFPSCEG
The mark [1] stands for this setting: Appendix A, read-out: pIC50 (converted).
Where [2] appears, read: Appendix A, read-out: % Inhibition.

Take `CCOC(=O)N1CCC(NC(=O)c2ccc3c(c2)N=C(CC(C)C)c2ccccc2S3)CC1`: the IC50 under setting [1] was 0.398 µM. Also, the Emax under setting [2] came to 89%.
The like results for `CCCNC(=O)c1ccc2c(c1)N=C(c1ccc(Br)cc1)c1ccccc1S2` [drawing 1055] were, in that order, 0.0316 µM and 92%.
The like results for `Cc1cccnc1C1=Nc2cc(C(=O)NC3CCCC3)ccc2Sc2ccccc21` were, in that order, 1 µM and 57%.
The like results for `O=C(NC1CCCCC1)c1ccc2c(c1)N=C(c1ccccc1Cl)c1ccccc1S2` were, in that order, 0.251 µM and 67%.
As to `O=C(NCCCc1ccccc1)c1ccc2c(c1)N=C(c1ccccc1)c1ccccc1S2` [drawing 617], under setting [1], the IC50 was 0.00398 µM. For the same compound, the Emax under setting [2] was 111%.
The like results for `O=C(NCc1cccnc1)c1ccc2c(c1)N=C(c1cccc(Br)c1)c1ccccc1S2` [drawing 895] were, in that order, 0.0158 µM and 105%.
The like results for `COc1ccc(C2=Nc3cc(C(=O)NCCC(C)C)ccc3Sc3ccccc32)cc1` [drawing 965] were, in that order, 0.02 µM and 104%.
In the case of `CCOCCNC(=O)c1ccc2c(c1)N=C(c1ccc(OC)cc1)c1ccccc1S2`, the IC50 under setting [1] was 0.0794 µM. For the same compound, under setting [2], the Emax is 90%.
Consider `O=C(NC1CCCCNC1=O)c1ccc2c(c1)N=C(c1ccc(Cl)cc1)c1ccccc1S2` (centres unmarked), for which, under setting [1], the IC50 is 0.1 µM. Moreover, the Emax under setting [2] turned out to be 81%.
The like results for `CCOC(=O)N1CCC(NC(=O)c2ccc3c(c2)N=C(c2ccc(Cl)cc2)c2ccccc2S3)CC1` [drawing 1101] were, in that order, 0.0316 µM and 109%.
In the case of `C[C@@H]1CCC[C@H](C)N1NC(=O)c1ccc2c(c1)N=C(c1cccc(Cl)c1)c1ccccc1S2` [drawing 847], the Emax under setting [2] was determined as 100%. For the same compound, the IC50 (pIC50, Appendix A) was 0.0126 µM.
With `COCCNC(=O)c1ccc2c(c1)N=C(c1cccc(Cl)c1)c1ccccc1S2` [drawing 849], the IC50 under setting [1] was 0.0126 µM. Further, the Emax under setting [2] was 110%.
The like results for `Cc1cccc(C2=Nc3cc(C(=O)NCC(C)C)ccc3Sc3ccccc32)n1` [drawing 809] were, in that order, 0.01 µM and 82%.
The like results for `CCCCNC(=O)c1ccc2c(c1)N=C(c1ccc(Cl)s1)c1ccccc1S2` [drawing 633] were, in that order, 0.00501 µM and 92%.
As for `CON(C)C(=O)c1ccc2c(c1)N=C(c1ccc(Cl)c(Cl)c1)c1ccccc1S2`, the Emax under setting [2] turned out to be 0%.
On to `Cc1ccsc1C1=Nc2cc(C(=O)NCc3ccco3)ccc2Sc2ccccc21` [drawing 855], for which the IC50 under setting [1] is 0.0126 µM. For the same compound, the Emax under setting [2] worked out at 100%.
`CC(C)CNC(=O)c1ccc2c(c1)N=C(c1cccc(Cl)c1)c1ccccc1S2` [drawing 609]: the IC50 under setting [1] was 0.00398 µM. Further, the Emax (read-out: % Inhibition, Appendix A) came out at 116%.
Take `O=C(c1ccc2c(c1)N=C(N1CCCCC1)c1ccccc1S2)N1CCCCC1`: the IC50 under setting [1] was 0.2 µM. Further, the Emax under setting [2] is 89%.
The like results for `O=C(NCCCC(F)(F)F)c1ccc2c(c1)N=C(c1ccc(Cl)cc1)c1ccccc1S2` [drawing 601] were, in that order, 0.00398 µM and 105%.
The like results for `Cc1ccsc1C1=Nc2cc(C(=O)NCCC(F)(F)F)ccc2Sc2ccccc21` [drawing 1047] were, in that order, 0.0316 µM and 101%.
As for `O=C(NCc1cccc(Cl)c1)c1ccc2c(c1)N=C(c1cccc(Cl)c1)c1cc(F)ccc1S2` [drawing 651], the IC50 under setting [1] is 0.00501 µM. For the same compound, under setting [2], the Emax was 107%.
The like results for `O=C(NCCc1ccccc1)c1ccc2c(c1)N=C(c1ccc(Cl)cc1)c1ccccc1S2` [drawing 743] were, in that order, 0.00794 µM and 110%.
The like results for `CCN(CCNC(=O)c1ccc2c(c1)N=C(N1CCCCC1)c1ccccc1S2)c1ccccc1` [drawing 913] were, in that order, 0.0158 µM and 105%.
The like results for `CCCC1=Nc2cc(C(=O)NCCCSC3CCCCC3)ccc2Sc2ccccc21` were, in that order, 0.158 µM and 95%.
Consider `COc1ccc(C2=Nc3cc(C(=O)NNC(=O)c4ccccc4)ccc3Sc3ccccc32)cc1` [drawing 798], for which the Emax under setting [2] turned out to be 83%.
For the compound `CC(C)CNC(=O)c1ccc2c(c1)N=C(c1ccc(Cl)s1)c1ccc(F)cc1S2` [drawing 703], under setting [1], the IC50 is 0.00794 µM. Further, the Emax under setting [2] came to 117%.
With `CCCCCC1=Nc2cc(C(=O)N3CCN(c4ccc(C)cc4C)CC3)ccc2Sc2ccccc21`, the IC50 under setting [1] is 0.2 µM. Moreover, the Emax under setting [2] was 107%.
The like results for `O=C(NCCC(F)(F)F)c1ccc2c(c1)N=C(c1ccc(Cl)s1)c1ccccc1S2` [drawing 663] were, in that order, 0.00631 µM and 95%.
The like results for `COCCNC(=O)c1ccc2c(c1)N=C(c1ccc(Cl)s1)c1ccccc1S2` [drawing 819] were, in that order, 0.0126 µM and 103%.
With `CONC(=O)c1ccc2c(c1)N=C(c1cccc(F)c1)c1ccccc1S2`, the IC50 under setting [1] was 1 µM. The Emax under setting [2] was found to be 67%.
Turning to `CCCNC(=O)c1ccc2c(c1)N=C(c1ccccc1Cl)c1ccccc1S2`, under setting [1], the IC50 is 0.0794 µM. Also, the Emax under setting [2] was 78%.
With `O=C(NCc1cccc(Cl)c1)c1ccc2c(c1)N=C(c1ccccc1)c1ccccc1S2` [drawing 899], the IC50 under setting [1] is 0.0158 µM. Besides, the Emax under setting [2] stood at 107%.
As for `O=C(c1ccc2c(c1)N=C(c1ccc(F)cc1)c1ccccc1S2)N1CCCCC1` [drawing 1163], under setting [2], the Emax was 90%. The compound also gave an IC50 (pIC50, Appendix A) of 0.0398 µM.
`O=C(NC1CCCC1)c1ccc2c(c1)N=C(c1ccc(Cl)cc1)c1ccccc1S2` [drawing 782]: the IC50 under setting [1] was 0.1 µM. In addition, the Emax under setting [2] is 105%.
`COCCNC(=O)c1ccc2c(c1)N=C(c1ccccn1)c1ccccc1S2`: under setting [1], the IC50 is 0.398 µM. In addition, the Emax under setting [2] was 71%.
The like results for `Cc1cccnc1C1=Nc2cc(C(=O)NCCc3cccnc3)ccc2Sc2ccccc21` were, in that order, above 5.01 µM and 28%.
As for `COc1ccc(C2=Nc3cc(C(=O)NCc4ccc(S(N)(=O)=O)cc4)ccc3Sc3ccccc32)cc1`, the IC50 under setting [1] is 0.158 µM. Also, under setting [2], the Emax was 84%.
The like results for `O=C(NCc1ccc(F)cc1)c1ccc2c(c1)N=C(N1CCCCC1)c1ccccc1S2` [drawing 611] were, in that order, 0.00398 µM and 80%.
In the case of `CCN(CCNC(=O)c1ccc2c(c1)N=C(c1ccccc1)c1ccccc1S2)c1ccccc1` [drawing 777], the IC50 under setting [1] was 0.01 µM. For the same compound, the Emax under setting [2] is 106%.
The like results for `O=C(NCc1ccccc1)c1ccc2c(c1)N=C(N1CCCCC1)c1ccccc1S2` [drawing 681] were, in that order, 0.00631 µM and 110%.
As to `O=C(NCc1ccc(F)cc1)c1ccc2c(c1)N=C(c1ccc(Cl)cc1)c1ccccc1[S+]2[O-]` (centres unmarked) [drawing 1125], the IC50 under setting [1] was 0.0398 µM. Further, the Emax under setting [2] was determined as 98%.
The like results for `CN(NC(=O)c1ccc2c(c1)N=C(c1ccccc1F)c1ccccc1S2)C1CCCCC1` were, in that order, 0.316 µM and 74%.
On to `O=C(NCCc1ccncc1)c1ccc2c(c1)N=C(c1ccc(F)cc1)c1ccccc1S2` [drawing 1031], for which the IC50 under setting [1] was 0.0251 µM. Under setting [2], the Emax amounted to 94%.
The like results for `CCCC1=Nc2cc(C(=O)NCc3ccc(F)cc3)ccc2Sc2ccccc21` [drawing 787] were, in that order, 0.01 µM and 107%.
